Laboratory results taken from a melting point compilation (Tetko et al.; mined from patent text by program, amines drawn as free bases though some values may be those of a salt).

melting point | SMILES
135 to 140 °C | CCOC(=O)CN(C#N)Cc1cc(-n2cc(C)nc2C)cc(C)c1N
125 to 127 °C | O=C(O)CCC(=O)N1CCN(c2ccccn2)CC1
205 to 206 °C | Cc1ccc(S(=O)(=O)Nc2nc(-c3ccc(Cl)c(Cl)c3)cs2)cc1
75 to 77 °C | COC(=O)C1OC2(CCC3(CC2)OC(C(=O)OC)C(C(=O)OC)O3)OC1C(=O)OC (centres undefined)
147 to 148 °C | O=C(Nc1ccc2[nH]c(=O)oc2c1)C(=O)N1CCC(Cc2ccc(Cl)cc2)CC1
82 to 83 °C | COc1ccc2c(n1)CC(=O)N2CCCBr
113 to 115 °C | COc1ccc(S(=O)c2ccccc2)cc1N (centres undefined)
133 °C | Cc1cccc(-c2nc(Cl)cc(-c3ccccc3Cl)n2)n1
226 to 228 °C | CCOC(=O)c1cc2c(cn1)[nH]c1ccc(N)cc12
146 to 149 °C | O=C(Nc1ccc(C(=O)O)cc1)OCCCCC1c2ccccc2-c2ccccc21
174 to 176 °C | CCn1c(=O)n(OCc2ccccc2)c(=O)c2cc(F)c(N3CCCC3)cc21
219 to 220 °C | O=C(O)c1ccc(OCCNC(=O)c2ccc(Cl)cc2)cc1
172 to 174 °C | CCCCCCCCc1ccc(N(c2ccc(CCCCCCCC)cc2)C2(c3ccc(N(C)C)cc3C)OC(=O)c3ccccc32)cc1 (centres undefined)
179 to 180 °C | CCCN(CCC)C(=O)N1CCc2ccc(S(=O)(=O)NC(=O)NC3CCCCC3)cc2CC1
115 to 120 °C | CCOC(=O)Cn1c2cccccc-2c(C(=O)OCC)c1=O
73 to 77 °C | CC(C)CC(O)c1cccc(NC(=O)OCc2ccccc2)c1 (centres undefined)
97 to 98 °C | CCOc1cc(Cn2cc(CCC(=O)O)c(-c3ccccc3)c2)cc(OCc2csc(-c3cnccn3)n2)c1
193 to 195 °C | Cc1nc2c(N)nc3ccccc3c2n1CCOCCNC(=O)Nc1ccccc1
127 to 128 °C | CC(=O)OCCCNC(=O)C1=C(C(=O)Nc2ccc(Cl)cc2F)CCCC1
> 260 °C | Nc1nc2c(s1)C(=O)c1ccccc1C2=O
80 to 82 °C | CC(C)[C@@H]1CC[C@@H](C)C[C@H]1OC(=O)N1C(=O)O[C@@H](C(F)(F)F)[C@@H]1C(C)C
47 to 48 °C | COc1ccc(Br)cc1N1CCCC1
188 °C | Cn1ncc2c(=O)n3c(nc21)SC(C)(C)C3
84 to 85 °C | CCCC(C)(C)C(=O)NC1CCCNC(=O)C1 (centres undefined)

melting point | SMILES
148 to 149 °C | CC1(COc2cc(/C=C/C(=O)O)n(Cc3ccc(C(F)(F)F)cc3Cl)n2)COC1
230 to 231 °C | NC(=O)c1cc(-c2c[nH]nc2-c2ccc(F)cc2)ccn1
130 to 132 °C | Cc1cc(=O)n2cccc(OCc3ccccc3C(F)(F)F)c2n1
88 to 90 °C | CCC(CC)(CC(=O)Nc1cccc(OCc2ccc3cc(F)ccc3n2)c1)C(=O)O
143 to 146 °C | CN1CCN(C2(CNC(=O)c3ccc(Cl)c(Cl)c3)CCCCC2)CC1
174 to 175 °C | NC(=O)c1c(F)ccc(OCc2nc3ccc(OC(F)(F)F)cc3s2)c1F
166 to 168 °C | O=C(O)[C@H](Cc1cccs1)NN1C(=O)c2ccccc2C1=O
160 °C | O=S1(=O)c2cccc3cccc(c23)N1CCN1CCC(=Cc2cc3cc(F)ccc3[nH]2)CC1
270 °C | O=c1c2ccc(-c3nnn[nH]3)cc2oc2ccc(OCCCO)cc12
111 to 112 °C | CNC(=O)C1(CCCCCCCCCCCCC2(C(=O)NS(C)(=O)=O)CC2)CC1
170 to 172 °C | CCN(CC)C(=O)c1cc(-c2ccccc2)c(=O)n2c1-c1ccccc1C2
103 to 105 °C | O=C(NCCCn1cnc(-c2ccccc2)c1)c1ccc(Cl)cc1
257 to 259 °C | Cc1nnc2cc(-c3ccccc3Cl)c3cc(Cl)ccc3n12
113 to 115 °C | CSc1sc(C(=O)N(C)C)c2c1-c1oncc1C(C)(C)C2
182 to 184 °C | Cn1cc(C(=O)c2ccnc(Cl)c2)cc1C(=O)c1ccc(Cl)cc1
209 to 210 °C | Nc1cccc(Oc2ccc3c(c2)OCC(=O)N3)c1
148 to 150 °C | Cc1cccc(CC(=S)Nc2ccccc2C(=O)O)c1
118 to 128 °C | CCOC(=O)Cc1nn(C(c2ccccn2)c2ncno2)c(=O)c2ccccc12 (centres undefined)
96 to 98 °C | CCOC(=O)c1c[nH]c2c1-c1ncccc1CCC2
156 to 157 °C | O=C(c1ccc2nonc2c1)N1CC2CC1C(Cl)C2Cl (centres undefined)
58 to 59 °C | CCN(CC)CCN(CCCCCSc1nc(-c2ccccc2)c(-c2ccccc2)[nH]1)C(=O)NC(C)C
207 to 209 °C | CCOC(=O)c1ncc2[nH]c3ccc(Br)cc3c2c1COC
65 to 68 °C | CCCCOc1cc(C=CC(=O)N2CCN(c3ccc(NC(=N)c4cccs4)cc3)CC2)cc(OCCCC)c1O
267 to 268 °C | O=S1c2ccccc2Oc2ccc(-c3nnn[nH]3)cc21 (centres undefined)

melting point | SMILES
225 °C | Cc1cc(C(=O)O)c2[nH]c3c(c2c1)CCCC3
80 to 82 °C | CC[C@H](Cn1ncnn1)n1cnc2cc3c(=O)n([C@H](C)Cn4ncnn4)nnc3cc2c1=O
207 to 209 °C | CCc1ccc(-n2c(-c3cccnc3)nc(SC)c(C#N)c2=O)cc1
227 to 230 °C | NC1(C2CCN(c3c(F)cc4c(=O)c(C(=O)O)cn(C5CC5)c4c3F)C2)CC1 (centres undefined)
248 to 249 °C | CN(c1cccc2cc(C3=NCC(C)(C(N)=O)S3)[nH]c12)S(=O)(=O)c1cccs1 (centres undefined)
148 to 151 °C | N#Cc1ccc(OCCCCCCOc2ccc(-c3cc4cc(C#N)ccc4o3)cc2)cc1
172 to 174 °C | COc1cccc(OC)c1C(=O)NC(=O)Nc1ccc(Sc2ccc(Cl)cc2)nc1
44 to 52 °C | O=C(Cl)N1CC(Oc2ccc(F)cc2)C1
245 to 249 °C | CNC(=O)c1cc(NC(=O)c2ccc(C)c(Nc3nccc(-c4cccnc4)n3)c2)cc(C(F)(F)F)c1
96 to 97 °C | CC1(C)Cc2cc([N+](=O)[O-])cc(O)c2O1
158 °C | COc1ccc2c(c1)cc(CO)n2C
125 to 126 °C | CC(C)Cn1c(-c2c(F)cccc2F)c(Br)nc(Br)c1=O
233 to 235 °C | CCCCCCCNc1nc(C)c(O)c(=O)[nH]1
40 °C | C=CCOc1cc(OC)ccc1C(=O)c1ccccc1
53 to 55 °C | CCOC(=O)C(=Cc1ccccn1)C(=O)C(C)C
179 to 180 °C | CCN(C)C(=O)NS(=O)(=O)c1ccccc1OC(Cl)=CCl
175 to 177 °C | CC(C)S(=O)(=O)NC(=O)c1cccc([N+](=O)[O-])c1
147 to 158 °C | CCc1cc2c(cc1CC)C(=CC#N)OC2=O
55 to 57 °C | CCCOC(=Nc1sc(Cl)cc1C#N)OCCC
177 °C | CC(C#Cc1ccc(C=Cc2ccc(F)cc2)o1)N(O)C(N)=O (centres undefined)
158 to 161 °C | COc1ccc(Oc2c(N)cc(C(=O)O)cc2SCc2ccccc2)cc1
124 to 125 °C | O=C1Nc2ccccc2N(CCCCCCN2CCCCC2)c2ccccc21
176 to 178 °C | Nc1sc2c(c1C(=O)c1ccc(Br)c3ccccc13)CCCC2
120 to 122 °C | Cc1cc2c(cc1Cl)NC(NC(C)C)=NS2(=O)=O

SMILES | melting point
CCNC1CCc2[nH]c3ccccc3c2C1 (centres undefined) | 128 to 129 °C
CN(C)C(=O)NC(=O)C(C)(C)Br | 98 to 100 °C
